Measured values as given in PubChem BioAssay AID651650 (Sanford-Burnham Center for Chemical Genomics, 2012).
Calls of active or inactive are those of the source.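 Rule for the calls: active = mean IC50 below 20 µM in each of the two panels, so potent in both; inactive = the rest.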

Target: Neuropilin-1 (Homo sapiens) (UniProt O14786)
Assay: NRP-1 b1b2 CendR peptide binding inhibitors, dose response, biochemical, FP and AlphaScreen panel (AID 651650)
Conditions: NRP-1 b1b2 / RPARPAR peptide binding, FP or AlphaScreen
[1] = AlphaScreen, run 1, individual panel run IC50
[2] = FP, run 1, individual panel run IC50
[3] = FP, run 2, individual panel run IC50

Neuropilin-1 (Homo sapiens), sequence (O14786 whole entry, looked up): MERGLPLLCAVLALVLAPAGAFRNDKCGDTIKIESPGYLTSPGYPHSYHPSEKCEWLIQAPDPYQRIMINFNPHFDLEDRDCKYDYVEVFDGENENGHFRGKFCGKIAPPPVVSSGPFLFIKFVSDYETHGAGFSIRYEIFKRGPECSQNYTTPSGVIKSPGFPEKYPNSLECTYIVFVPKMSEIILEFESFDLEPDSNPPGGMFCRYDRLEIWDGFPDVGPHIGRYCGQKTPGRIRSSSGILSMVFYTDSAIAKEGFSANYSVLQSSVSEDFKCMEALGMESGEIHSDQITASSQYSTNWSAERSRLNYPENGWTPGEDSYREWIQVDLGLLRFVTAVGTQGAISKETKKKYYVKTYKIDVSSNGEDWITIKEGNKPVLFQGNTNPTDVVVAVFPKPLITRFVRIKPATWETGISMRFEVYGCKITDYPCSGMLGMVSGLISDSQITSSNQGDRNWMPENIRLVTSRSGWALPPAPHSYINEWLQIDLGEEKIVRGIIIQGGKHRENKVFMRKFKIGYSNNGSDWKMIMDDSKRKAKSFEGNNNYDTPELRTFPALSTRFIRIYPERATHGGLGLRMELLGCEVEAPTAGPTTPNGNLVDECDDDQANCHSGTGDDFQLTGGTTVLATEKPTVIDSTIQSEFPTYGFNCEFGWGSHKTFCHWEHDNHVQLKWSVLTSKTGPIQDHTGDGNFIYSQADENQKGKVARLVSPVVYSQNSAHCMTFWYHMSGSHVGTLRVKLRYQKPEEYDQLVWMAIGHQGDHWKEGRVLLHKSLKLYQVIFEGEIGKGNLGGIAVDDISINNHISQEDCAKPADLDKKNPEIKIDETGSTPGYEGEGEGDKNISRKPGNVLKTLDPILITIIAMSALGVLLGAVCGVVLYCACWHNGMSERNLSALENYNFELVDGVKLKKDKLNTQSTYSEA

| Structure (SMILES) | IC50 (AlphaScreen, mean of runs) | IC50 [1] [µM] | IC50 (FP, mean of runs) | IC50 [2] [µM] | IC50 [3] [µM] |
| --- | --- | --- | --- | --- | --- |
| O=C(O)CCSc1nnc(COc2cccc3cccnc23)n1-c1ccccc1 | > 100 µM (inactive) | > 100 | > 95 µM (inactive) | > 95 | > 95 |
| CC(/C=C/c1ccccc1)=N\NC(=O)CCc1ccccc1 | > 100 µM (inactive) | > 100 | > 95 µM (inactive) | > 95 | > 95 |
| COc1cc(C(=O)OCC(=O)Nc2c(F)c(F)c(F)c(F)c2F)cc(OC)c1OC | > 100 µM (inactive) | > 100 | > 95 µM (inactive) | > 95 | > 95 |
| Cc1cc2c(cc1C)NC(c1nc3ccccc3[nH]1)C1=C(CC(C)(C)CC1=O)N2 (stereo not given) | > 100 µM (inactive) | > 100 | > 95 µM (inactive) | > 95 | > 95 |
| CC(CN1CCCCC1)OC(=O)c1ccc(Cl)cc1Cl (stereo not given) | > 100 µM (inactive) | > 100 | > 95 µM (inactive) | > 95 | > 95 |
| Cc1ccc(C(=O)N/C(=C\c2sccc2C)C(=O)NCc2ccco2)cc1 | inactive | 92 | > 95 µM (inactive) | > 95 | > 95 |
| Cc1nnc(NC(=O)c2ccccc2C(=O)O)s1 | 16.6 µM | 16.6 | > 95 µM (inactive) | > 95 | > 95 |
| COc1ccc(C(C(=O)NC(C)(C)C)N(C(=O)CCC(=O)Nc2cc(C)on2)c2c(C)cccc2C)cc1 (stereo not given) | > 100 µM (inactive) | > 100 | > 95 µM (inactive) | > 95 | > 95 |
| C=CCC1(CC=C)CCCN1C(=O)c1cc(COc2cccc(OC)c2)on1 | > 100 µM (inactive) | > 100 | > 95 µM (inactive) | > 95 | > 95 |
| C[C@@H](C(=O)Nc1cccnc1)n1c(=O)[nH]c2ccccc2c1=O | > 100 µM (inactive) | > 100 | > 95 µM (inactive) | > 95 | > 95 |
| CSc1ncccc1C(=O)OCC(=O)NC1CCCCC1 | > 100 µM (inactive) | > 100 | > 95 µM (inactive) | > 95 | > 95 |
| CCOc1ccccc1N1CCN(C(=O)c2ccncc2)CC1 | > 100 µM (inactive) | > 100 | > 95 µM (inactive) | > 95 | > 95 |
| Cn1c(=O)c2[nH]c(COc3ccccc3)nc2n(C)c1=O | > 100 µM (inactive) | > 100 | > 95 µM (inactive) | > 95 | > 95 |
| Cc1ccc(C(=O)O)cc1NC(=O)Nc1cccc2ccccc12 | > 100 µM (inactive) | > 100 | > 95 µM (inactive) | > 95 | > 95 |
| COc1ccc(CCNC(=O)c2c(O)c3cccc4c3n(c2=O)CC4)cc1OC | > 100 µM (inactive) | > 100 | > 95 µM (inactive) | > 95 | > 95 |
| CC(C)C1=C2CCCCC2NC(=O)N1 (stereo not given) | > 100 µM (inactive) | > 100 | > 95 µM (inactive) | > 95 | > 95 |
| CCNC(=O)C1(C)CCCN(C(=O)c2nc(C)oc2C)C1 (stereo not given) | > 100 µM (inactive) | > 100 | > 95 µM (inactive) | > 95 | > 95 |
| CC1CCC(NC(=O)CSc2nncn2C)CC1 (stereo not given) | > 100 µM (inactive) | > 100 | > 95 µM (inactive) | > 95 | > 95 |
| NS(=O)(=O)c1ccc(CNC(=S)NCc2ccc(F)cc2)cc1 | > 100 µM (inactive) | > 100 | > 95 µM (inactive) | > 95 | > 95 |
| COC(=O)Cc1ccc(NC(=S)NCCCO)cc1 | > 100 µM (inactive) | > 100 | > 95 µM (inactive) | > 95 | > 95 |
| COc1ccc(-c2csc(NCCc3nc4cc(C(=O)NCCCO)ccc4n3Cc3ccc(C)cc3)n2)cc1 | inactive | 27.6 | > 95 µM (inactive) | > 95 | > 95 |
| O=C(NCCN1CCOCC1)c1cc(-c2ccc(F)cc2)on1 | > 100 µM (inactive) | > 100 | > 95 µM (inactive) | > 95 | > 95 |
| Cc1cccc(NC(=O)c2ccc(OCc3c(C)noc3C)cc2)c1 | 17.8 µM | 17.8 | > 95 µM (inactive) | > 95 | > 95 |

| Structure (SMILES) | IC50 (AlphaScreen, mean of runs) | IC50 [1] [µM] | IC50 (FP, mean of runs) | IC50 [2] [µM] | IC50 [3] [µM] |
| --- | --- | --- | --- | --- | --- |
| CC(=O)Nc1ccc2nc3c(=O)n(C)c(=O)n(C)c3nc2c1 | inactive | 57.6 | > 95 µM (inactive) | > 95 | > 95 |
| NC(=O)c1c(NC(=O)C(=O)N2CCOCC2)sc2c1CCCC2 | > 100 µM (inactive) | > 100 | > 95 µM (inactive) | > 95 | > 95 |
| COc1ccc(NC(=O)CN2CCN(c3c(C)cc(C)cc3C)CC2)cc1 | > 100 µM (inactive) | > 100 | > 95 µM (inactive) | > 95 | > 95 |
| COc1cccc(C(=O)N2N=C(c3ccccc3)CC2(O)C(F)(F)F)c1 (stereo not given) | > 100 µM (inactive) | > 100 | > 95 µM (inactive) | > 95 | > 95 |
| O=[N+]([O-])c1ccc(Nc2nc(NC3CCCCC3)nc(N3CCCC3)n2)cc1 | > 100 µM (inactive) | > 100 | > 95 µM (inactive) | > 95 | > 95 |
| O=C(c1ccc(-c2cccc(Cl)c2)o1)N1CCN(c2ccc([N+](=O)[O-])cc2)CC1 | > 100 µM (inactive) | > 100 | inactive | > 95 | 39.5 |
| C=C1CCN([C@@H](CC(C)C)C(=O)NCc2ccccc2)S(=O)(=O)c2ccccc21 | > 100 µM (inactive) | > 100 | > 95 µM (inactive) | > 95 | > 95 |
| O=C(CSc1nc2ccccc2c(=O)n1-c1ccc(F)cc1F)Nc1ccc2c(c1)CCC2 | > 100 µM (inactive) | > 100 | > 95 µM (inactive) | > 95 | > 95 |
| O=C(CN1C2=NCCN2c2ccccc21)c1ccco1 | > 100 µM (inactive) | > 100 | > 95 µM (inactive) | > 95 | > 95 |
| NC(N)=NCCC[C@H](NC(=O)OCc1ccccc1)C(=O)O | > 100 µM (inactive) | > 100 | > 95 µM (inactive) | > 95 | > 95 |
| O=C(O)c1cc(NCc2ccc(F)cc2)ccc1N1CCOCC1 | > 100 µM (inactive) | > 100 | > 95 µM (inactive) | > 95 | > 95 |
| O=C(COc1ccc(S(=O)(=O)N2CCCC2)cc1)Nc1ccc2c(c1)OCCO2 | > 100 µM (inactive) | > 100 | > 95 µM (inactive) | > 95 | > 95 |
| CCN(CC)C(=O)C1CCCN(C(=O)Nc2ccc3nsnc3c2)C1 (stereo not given) | > 100 µM (inactive) | > 100 | > 95 µM (inactive) | > 95 | > 95 |
| N#CC(C#N)=Cc1cc2ccccc2nc1N1CCCCC1 | > 100 µM (inactive) | > 100 | > 95 µM (inactive) | > 95 | > 95 |
| CCOC(=O)c1c2ccc(OCC(=O)NN)cc2n2ccccc12 | > 100 µM (inactive) | > 100 | > 95 µM (inactive) | > 95 | > 95 |
| Cc1ccc(CN(CC(=O)NC2CCCCC2)C(=O)c2csnn2)cc1 | > 100 µM (inactive) | > 100 | > 95 µM (inactive) | > 95 | > 95 |
| CC1CCN(C(=O)CSc2nncn2C)CC1 | > 100 µM (inactive) | > 100 | > 95 µM (inactive) | > 95 | > 95 |
| C=C1CCN([C@@H](CC(C)C)C(=O)NCCC(C)C)S(=O)(=O)c2ccccc21 | > 100 µM (inactive) | > 100 | > 95 µM (inactive) | > 95 | > 95 |
| CN(C)Cc1cc(C(F)(F)F)ccc1C(O)(c1ccccc1)c1ccccc1 | > 100 µM (inactive) | > 100 | > 95 µM (inactive) | > 95 | > 95 |
| O=C(NNC(=O)c1ccccc1Cl)c1cccnc1 | 19.2 µM | 19.2 | > 95 µM (inactive) | > 95 | > 95 |
| Cc1ccc(Cn2nnnc2CN2CCC(n3nnc4ccccc43)CC2)cc1 | > 100 µM (inactive) | > 100 | > 95 µM (inactive) | > 95 | > 95 |
| COc1cccc(NC(=O)CSc2nc(O)c(C)c(=O)n2-c2ccc(C)cc2)c1 | > 100 µM (inactive) | > 100 | inactive | 20.1 | > 95 |
| CCNS(=O)(=O)c1ccc(CCC(=O)O)cc1 | > 100 µM (inactive) | > 100 | > 95 µM (inactive) | > 95 | > 95 |
